For this test, the target named is THP4.1 biosensor (Salmonella typhimurium, UniProt Q8ZR43). Description: Dose response and ligand response of the THP4.1 biosensor. As to conditions: pThpR reporter. The test is classed as cell-based.
Sequence of THP4.1 biosensor (Q8ZR43 whole entry): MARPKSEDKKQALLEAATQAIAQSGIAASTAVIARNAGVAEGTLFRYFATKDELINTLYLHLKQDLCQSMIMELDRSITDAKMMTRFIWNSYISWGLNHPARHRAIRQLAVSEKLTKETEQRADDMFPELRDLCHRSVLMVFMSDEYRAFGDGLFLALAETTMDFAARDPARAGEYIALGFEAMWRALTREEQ

With `COc1ccc(C[C@@H]2NCCc3cc(OC)c(O)cc32)cc1O` [norreticuline], the “responsiveness of THP4.1” value is reported as “somewhat responsive”.
